Test results reported in patent publication US12171821B2, “Toxoplasma gondii vaccine” (priority 2018, dated 2024).
“And” between values parts separate entries of the source, which are not always exact repeats. Identical values can stand only once. “Also recorded” adds a separate entry of the source.

Experiments:
T. gondii = test: Real-time PCR (SAG1) on gDNA of mouse fecal samples; type: in vivo, Toxoplasma gondii; conditions: gDNA of mouse fecal samples
Procedure: Delta-6-desaturase inhibition. SC 26196 (Cayman) was solubilized in DMSO and used at 20 μM in mouse organoid monolayers. For in vivo treatment, the inhibitor was solubilized in 0.5% m/v methylcellulose and the mice were given 50 mg/kg every 12 hours by oral gavage (He et al., 2012). 4-week old C57BL/6J female mice deleted in Z-DNA-binding protein (Pittman et al., 2016) were divided into four different groups: uninfected control, T. gondii-infected without fatty acid supplementation, T. gondii infected with linoleic acid supplementation, and T. gondii-infected with linoleic acid and SC 26196 inhibitor. Each mouse supplemented with linoleic acid received 10 μL of 99% linoleic acid oil (MilliporaSigma Cat #843483) suspended in 0.5% Methylcellulose per day by oral gavage. Mice were infected with 1000 brain cysts purified as described above by oral gavage and euthanized 7 days post infection. Sample size was at least 2 mice per group and the experiment was repeated 5 times. Alternatively, each mouse was infected with one mouse brain at least 2 months postinfection with at least 1000 cysts. Mice were treated with SC 26196 until day 5 postinfection. Feces were collected from days 5-14 and oocysts enumerated by microscopy.
Real-time PCR on fecal samples. […] A standard curve was generated using a dilution series of 101-105 parasites per well amplified using the SAG1 primer set described above, based on a gDNA sample with known parasite quantity. […]
[formula] […] The calculated copy numbers of each sample were normalized based on the ng of nucleic acid used as PCR template. […]
Statistical methods. […] The difference between the mean target gene copy numbers was analyzed by two-tailed unpaired t tests. […] The difference between the mean relative expression of each target gene was analyzed by two-tailed unpaired t tests.

[1] = system: T. gondii ME49 bradyzoites; test: Gametes and intracellular oocyst walls (AO2, 3G4, PCR) in infected cat intestinal monolayers; type: cell-based, Toxoplasma gondii
Procedure: FIGS. 7A-H. Identification of gametes and intracellular oocysts in cat tissue culture. Cat intestinal organoids were disassociated by trypsin then grown as monolayers on glass slides. […] After 7 days, monolayers were incubated with mouse anti-AO2 (panels A-C) or mouse monoclonal IgM 3G4 (panels E-G), The amiloride-sensitive amine oxidase, copper-containing protein 2 (AO2) is an enzyme exclusively expressed in macrogametes and early oocysts and has a possible role in oocyst wall biogenesis. […] 3G4 is a mouse monoclonal antibody produced by immunizing mice with purified oocyst walls, thus it is a marker of oocyst wall biogenesis. Only monolayers supplemented with linoleic acid (G) had positive 3G4 vacuoles. All panels are 20 μm square with a 5 μm white size bar in the lower right corner. D) Markers for macrogamete and microgamete expression were also evaluated by PCR. Cat intestinal monolayers were grown in 24-well plates until confluency and then infected with T. gondii bradyzoites in duplicate using the same conditions as above. 7 days post-infection, RNA was extracted with TRIzol and cDNA was synthesized using an oligo (dT) primer to only amplify mRNA. AO2 was again used as a marker for macrogametes and the expected PCR product is 218 bp. To assess microgamete presence, we selected the gene TgME49_306338, which is overexpressed in the gametes stage, corresponded to day 7 post-infection in cats and has 44% identity to a protein expressed in the flagella of the motile green algae Chlamydomonas reinhardtii. The expected PCR product for TgME49_306338 is 160 bp. TUB1A was used as an input control and results in a 172 bp product. NO RT corresponds to a cDNA synthesis reaction without the addition of reverse transcriptase (RI) as a control for genomic DNA contamination. Equivalent amounts of cDNA per sample were used as a template for each PCR reaction, and the products were separated on an acrylamide gel. […] H) The number of positive oocyst walls stained with 3G4 were quantified. […] The number of positive oocyst walls were counted in each slide and divided by the area of slide in cm^2.
Immunofluorescence. Intestinal organoid monolayers or mouse fecal samples were fixed in 3.7% formaldehyde in PBS for 20 minutes, permeabilized with 0.2% triton X-100 (Sigma) in PBS at room temperature for one hour and then blocked with 3% BSA in PBS at room temperature for one hour. Primary antibody was incubated at 4° C. overnight in 0.2% v/v Triton x-100 and 3% BSA in PBS (1:100 mouse anti-GRA11B, 1:100 rabbit anti-BRP1, 1:100 mouse anti-AO2, 1:50 monoclonal mouse anti-ZO1 (Santa Cruz) or 1:25 mouse 288 IgM anti-oocyst wall 3G4. Sporulated oocysts from mouse feces were dried onto slides, fixed and permeabilized with ice cold acetone for 30 minutes and incubated with 1:20 mouse 4B6 to the visualize the sporocyst. Slides were incubated one hour with the specific secondary antibody (1:500 goat anti-rabbit Alexa Fluor 488 and 1:500 goat anti-mouse Alexa Fluor 594) at room temperature for one hour and then washed 3 times with PBS. Cells nuclei were stained with 10 μM DAPI (Sigma). Slides were mounted in Vectashield antifade mounting medium (VectorLabs). Samples were imaged on Zeiss Axioplan III equipped with a triple-pass (DAPI/fluorescein isothiocyanate [FITC]/Texas Red) emission cube, differential interference contrast optics, and a monochromatic Axiocam camera operated by Zen software (Zeiss) and processed using ImageJ (Fiji packet).
PCR of cat intestinal monolayers. […]

## CCCCC/C=C\C/C=C\CCCCCCCC(=O)O [linoleic acid]
T. gondii
  SAG1 Ct mean: 35.84
T. gondii; wells 1-3
  SAG1 raw Ct values: 37.02 and 36.43 and 34.08
[1]; cat cells, 20 μM linoleic acid
  oocyst wall production: did not enhance oocyst wall production
[1]; cat intestinal monolayers, 200 μM fatty acid, 7 days of infection
  macrogamete protein AO2 by immunofluorescence: round structures were seen with reactivity to the macrogamete protein AO210; also recorded: only detected by immunofluorescence in the monolayers supplemented with linoleic acid
[1]; cat intestinal monolayers, 200 μM, 7 days post-infection
  AO2 and TgME49_306338 expression by PCR (bands with the correct size): only observed in linoleic acid supplemented monolayers
[1]; cultured cat cells, 200 μM fatty acid, 7 days of infection
  number of positive oocyst walls stained with 3G4: approximately 9 oocyst walls per cm^2
